Literature values as cited in patent US6103723A, “Inhibitors of farnesyl-protein transferase” (Merck & Co., Inc., priority 1998, dated 2000).

System: farnesyl-protein transferase
Conditions: via HMG-CoA reductase inhibition

SMILES	Indirect inhibition of farnesyl-protein transferase in vivo
CC[C@H](C)C(=O)O[C@H]1C[C@@H](C)C=C2C=C[C@H](C)[C@H](CC[C@@H]3C[C@@H](O)CC(=O)O3)[C@H]21 [lovastatin]	Indirect inhibition of farnesyl-protein transferase in vivo has been demonstrated
CC[C@H](C)C(=O)O[C@H]1CCC=C2C=C[C@H](C)[C@H](CC[C@@H]3C[C@@H](O)CC(=O)O3)[C@H]21 [compactin]	Indirect inhibition of farnesyl-protein transferase in vivo has been demonstrated
